Measured values reported in ChEMBL document CHEMBL5236647, “The discovery of 3,3-dimethyl-1,2,3,4-tetrahydroquinoxaline-1-carboxamides as AMPD2 inhibitors with a novel mechanism of action” (Bioorg Med Chem Lett, 2023).
Active and inactive are the calls of the source. No cut-off for these calls is given here.

Experiments:
AMP deaminase 2 [1] = target: T1, AMP deaminase 2 (Homo sapiens, UniProt Q01433); test: Inhibition of recombinant human AMPD2 using AMP as substrate incubated for 30 mins by spectrophotometric analysis
T1 sequence (Q01433 whole entry): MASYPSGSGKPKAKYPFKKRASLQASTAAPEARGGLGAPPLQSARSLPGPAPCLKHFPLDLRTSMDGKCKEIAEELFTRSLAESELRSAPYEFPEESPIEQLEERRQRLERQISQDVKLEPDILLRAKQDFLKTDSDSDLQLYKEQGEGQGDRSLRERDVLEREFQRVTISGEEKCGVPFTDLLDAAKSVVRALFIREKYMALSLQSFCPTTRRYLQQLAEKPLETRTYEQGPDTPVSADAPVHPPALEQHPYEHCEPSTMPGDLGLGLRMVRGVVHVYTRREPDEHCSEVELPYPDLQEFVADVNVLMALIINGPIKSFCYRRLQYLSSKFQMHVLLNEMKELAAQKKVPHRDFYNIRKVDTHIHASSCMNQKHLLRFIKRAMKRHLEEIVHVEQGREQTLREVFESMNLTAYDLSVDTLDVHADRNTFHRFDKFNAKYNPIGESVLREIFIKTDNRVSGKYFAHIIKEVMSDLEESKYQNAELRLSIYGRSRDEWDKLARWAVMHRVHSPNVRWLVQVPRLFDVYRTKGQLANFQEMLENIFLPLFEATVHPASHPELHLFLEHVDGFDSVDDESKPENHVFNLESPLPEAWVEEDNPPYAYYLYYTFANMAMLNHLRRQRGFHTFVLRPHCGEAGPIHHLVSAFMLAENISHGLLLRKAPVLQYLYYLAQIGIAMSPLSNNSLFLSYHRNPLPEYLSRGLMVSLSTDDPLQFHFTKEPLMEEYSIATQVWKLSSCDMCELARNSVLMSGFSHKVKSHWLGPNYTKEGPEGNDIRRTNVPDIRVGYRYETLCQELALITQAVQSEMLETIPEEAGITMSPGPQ

[2] = target: T2, AMP deaminase 2 (Homo sapiens) (UniProt Q01433); test: Selectivity ratio of IC50 for recombinant human AMPD2 using AMP as substrate incubated for 30 mins by spectrophotometric analysis to IC50 for recombinant human AMPD2 using AMP as substrate preincubated for 30 mins followed by substrate addition and measured after 30 mins by spectrophotometric analysis
T2 sequence (whole entry): T1 sequence (Q01433 whole entry)

AMP deaminase 2 [3] = target: T1, AMP deaminase 2; test: Inhibition of recombinant human AMPD2 using AMP as substrate preincubated for 30 mins followed by substrate addition and measured after 30 mins by spectrophotometric analysis
[4] = Metabolic stability in mouse liver microsomes assessed as compound remaining at 5 uM after 1 hr; assay type: ADME, Microsome; conditions: read-out: Stability
[5] = Ex vivo inhibition of AMPD2 in C57BL/6J mouse liver at 30 mg/kg, po administered for 1 hr; assay type: functional
AMP deaminase 2 [6] = target: T3, AMP deaminase 2 (Mus musculus, UniProt Q9DBT5); test: Inhibition of recombinant mouse AMPD2 using AMP as substrate preincubated for 30 mins followed by substrate addition and measured after 30 mins by spectrophotometric analysis
T3 sequence (Q9DBT5 whole entry): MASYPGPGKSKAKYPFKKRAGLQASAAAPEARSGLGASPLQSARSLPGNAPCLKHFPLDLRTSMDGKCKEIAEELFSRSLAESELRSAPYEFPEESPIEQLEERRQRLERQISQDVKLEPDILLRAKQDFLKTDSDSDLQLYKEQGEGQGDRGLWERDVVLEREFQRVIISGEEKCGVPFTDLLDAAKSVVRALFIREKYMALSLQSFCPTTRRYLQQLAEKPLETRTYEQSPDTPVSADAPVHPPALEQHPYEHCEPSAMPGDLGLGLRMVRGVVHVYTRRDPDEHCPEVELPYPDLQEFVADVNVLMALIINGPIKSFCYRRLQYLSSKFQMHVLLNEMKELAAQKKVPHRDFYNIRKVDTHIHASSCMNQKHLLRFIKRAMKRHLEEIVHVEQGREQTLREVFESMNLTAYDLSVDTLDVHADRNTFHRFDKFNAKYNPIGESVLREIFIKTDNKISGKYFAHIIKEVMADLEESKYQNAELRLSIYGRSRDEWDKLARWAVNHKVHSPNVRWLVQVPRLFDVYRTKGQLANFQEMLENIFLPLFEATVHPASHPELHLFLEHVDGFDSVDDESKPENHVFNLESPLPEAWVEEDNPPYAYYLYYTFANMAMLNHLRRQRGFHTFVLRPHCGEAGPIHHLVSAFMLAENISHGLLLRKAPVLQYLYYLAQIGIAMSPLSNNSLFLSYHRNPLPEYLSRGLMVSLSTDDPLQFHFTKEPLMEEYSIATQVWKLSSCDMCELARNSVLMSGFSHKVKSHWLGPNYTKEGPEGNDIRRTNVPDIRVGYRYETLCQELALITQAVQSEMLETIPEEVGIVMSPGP

[7] = target: T4, AMP deaminase 1 (Homo sapiens) (UniProt P23109); test: Inhibition of AMPD1 (unknown origin) at 100 uM
T4 sequence (whole entry): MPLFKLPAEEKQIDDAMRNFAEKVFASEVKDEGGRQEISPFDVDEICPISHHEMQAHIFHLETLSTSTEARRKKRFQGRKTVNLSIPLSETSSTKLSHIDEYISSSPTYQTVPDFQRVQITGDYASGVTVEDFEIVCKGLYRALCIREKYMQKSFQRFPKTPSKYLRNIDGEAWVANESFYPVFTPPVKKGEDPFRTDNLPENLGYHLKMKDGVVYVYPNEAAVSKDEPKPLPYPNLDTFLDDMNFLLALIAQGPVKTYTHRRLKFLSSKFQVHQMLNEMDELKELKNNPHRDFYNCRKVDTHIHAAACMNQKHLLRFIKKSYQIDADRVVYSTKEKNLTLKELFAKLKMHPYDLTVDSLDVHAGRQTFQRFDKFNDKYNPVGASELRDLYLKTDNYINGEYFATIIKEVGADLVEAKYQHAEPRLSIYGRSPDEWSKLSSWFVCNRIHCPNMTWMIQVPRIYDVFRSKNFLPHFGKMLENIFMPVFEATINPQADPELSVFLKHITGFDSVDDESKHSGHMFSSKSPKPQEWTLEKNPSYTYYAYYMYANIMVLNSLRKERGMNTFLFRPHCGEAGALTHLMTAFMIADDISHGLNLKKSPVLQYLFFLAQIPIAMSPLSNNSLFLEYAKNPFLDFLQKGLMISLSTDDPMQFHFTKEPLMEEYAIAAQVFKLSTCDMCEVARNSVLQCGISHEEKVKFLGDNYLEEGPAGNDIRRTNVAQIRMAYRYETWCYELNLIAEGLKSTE

Row | SMILES | IC50 (AMP deaminase 2 [1]) [nM] | Ratio IC50 [2] | IC50 (AMP deaminase 2 [3]) [nM] | remaining at 1 h, 5 µM [4] [%] | IC50 (AMP deaminase 2 [6]) [nM] | inhibition [7] | inhibition in vivo at 30 mg/kg [5] [%]
1 | CNC(=O)N1CC(C)(C)N(Cc2ccccc2)c2ccccc21 | > 100000 | – | – | – | – | – | –
2 | CC1(C)CN(C(N)=O)c2ccc(F)cc2N1Cc1ccccc1 | 5100 | 4.6 | 1100 | – | – | – | –
3 | Cc1cccc(CN2c3ccccc3N(C(N)=O)CC2(C)C)c1 | 2300 | 7.5 | 300 | – | – | – | –
4 | CC1(C)CN(C(N)=O)c2ccccc2N1Cc1cccc(OC(F)(F)F)c1 | 1300 | 9.2 | 140 | – | – | – | –
5 | CCC(=O)N1CC(C)(C)N(Cc2ccccc2)c2ccccc21 | > 100000 | – | – | – | – | – | –
6 | CC1(C)CN(C(N)=O)c2ccccc2N1Cc1ccccc1 | 3000 | 11 | 270 | – | – | inactive | –
7 | CC1(C)CN(C(N)=O)c2c(F)cccc2N1Cc1ccccc1 | 4000 | 8 | 500 | – | – | – | –
8 | CC1(C)CN(S(C)(=O)=O)c2ccccc2N1Cc1ccccc1 | > 100000 | – | – | – | – | – | –
9 | Cc1cccc2c1N(Cc1ccccc1)C(C)(C)CN2C(N)=O | 5000 | 2.3 | 2200 | – | – | – | –
10 | CC(=O)N1CC(C)(C)N(Cc2ccccc2)c2ccccc21 | 57000 | 1.4 | 41000 | – | – | – | –
11 | CC1(C)CN(C(N)=O)c2ccccc2N1Cc1ccccc1Cl | 21000 | 1.8 | 12000 | – | – | – | –
12 | CC1(C)CN(C(N)=O)c2ccccc2N1Cc1cccc(CCc2ccccc2)c1 | > 3000 | – | 500 | – | – | – | –
13 | CC1(C)CN(C(N)=O)c2cccc(Cl)c2N1Cc1ccccc1 | 1700 | 9.2 | 180 | – | – | – | –
14 | CC1(C)CN(C(N)=O)c2cc(F)ccc2N1Cc1ccccc1 | 1900 | 8.2 | 240 | – | – | – | –

Further lines, with some results ahead:

Row | IC50 (AMP deaminase 2 [1]) [nM] | Ratio IC50 [2] | IC50 (AMP deaminase 2 [3]) [nM] | remaining at 1 h, 5 µM [4] [%] | IC50 (AMP deaminase 2 [6]) [nM] | inhibition [7] | SMILES | inhibition in vivo at 30 mg/kg [5] [%]
15 | 1400 | 8.2 | 170 | – | – | – | Cc1ccc(CN2c3ccccc3N(C(N)=O)CC2(C)C)cc1 | –
16 | 4100 | 15 | 270 | – | – | – | CC1(C)CN(C(N)=O)c2ccccc2N1Cc1ccc(OC(F)(F)F)cc1 | –
17 | 1100 | 36 | 30 | – | – | – | CC1(C)CN(C(N)=O)c2cccc(F)c2N1Cc1ccccc1 | –
18 | 2600 | 25 | 110 | – | – | – | CC1(C)CN(C(N)=O)c2ccccc2N1Cc1ccc(COc2ccccc2)cc1 | –
19 | – | – | 130 | 51 | – | – | CC1(C)CN(C(N)=O)c2ccc(F)c(F)c2N1Cc1ccc(COc2ccccc2)cc1 | 24
20 | – | – | 200 | 56 | – | – | CC1(C)CN(C(N)=O)c2ccc(F)c(F)c2N1Cc1ccc(COc2ccc(C(N)=O)cc2)cc1 | 58
21 | 1800 | 33 | 60 | 18 | 40 | – | CC1(C)CN(C(N)=O)c2ccc(F)c(F)c2N1Cc1ccccc1 | 71
22 | – | – | 100 | 46 | 110 | – | CC1(C)CN(C(N)=O)c2ccc(F)c(F)c2N1Cc1ccc(COc2ccc(CO)cc2)cc1 | 83
23 | 1700 | 8.9 | 190 | – | – | – | CC1(C)CN(C(N)=O)c2ccccc2N1Cc1ccc(Cl)cc1 | –
24 | 3100 | 4.2 | 740 | – | – | – | CC1(C)CN(C(N)=O)c2ccccc2N1Cc1ccc(OCc2ccccc2)cc1 | –
25 | 4100 | 16 | 260 | – | – | – | CC1(C)CN(C(N)=O)c2cc(F)cc(F)c2N1Cc1ccccc1 | –
26 | – | – | 170 | 34 | – | – | CC(=O)Nc1ccc(OCc2ccc(CN3c4c(ccc(F)c4F)N(C(N)=O)CC3(C)C)cc2)cc1 | 19
27 | 6000 | 15 | 410 | – | – | – | CC1(C)CN(C(N)=O)c2ccccc2N1Cc1ccc(CCc2ccccc2)cc1 | –
